Reference: patent US8916498B2, “Safening 6-(trisubstituted phenyl)-4-amino-2-pyridinecarboxylate herbicide injury on direct seeded and transplanted paddy rice” (priority 2008, dated 2014)
Where “and” joins values, the source holds several entries; their conditions need not be identical. Equal entries are not always repeated.

What was measured:
ORYSA (rice) = test: Postemergence herbicidal safening in direct seeded rice, visual injury; conditions: for Visual Injury (%) ‘Lemont’ ORYSA Obs / ‘M202’ ORYSA Visual Injury (%) Obs: after 3 weeks
From the text: A=observed efficacy of active ingredient A at the same concentration as used in the mixture.
B=observed efficacy of active ingredient B at the same concentration as used in the mixture.

ECHCO = test: Postemergence herbicidal safening in direct seeded rice, visual injury on weed; assay type: in vivo; conditions: alone, after 3 weeks
CYPDI = test: as above; assay type: in vivo; conditions: alone, after 3 weeks
SEBEX = test: as above; assay type: in vivo; conditions: alone, after 3 weeks
[1] = alone, 17.5 g ae/ha, after 3 weeks (Table 14)
[2] = alone, 35 g ae/ha, after 3 weeks (Table 14)
[3] = No safener, 17.5 g ai/ha, after 3 weeks (Table 12)
[4] = alone, 8.75 g ae/ha, after 3 weeks (Table 14)

Compound: C=CCOC(=O)c1nc(-c2ccc(Cl)c(OC)c2F)cc(N)c1Cl [Compound 1 Allyl Ester]
- ORYSA Visual Injury (%) ‘Cheniere’ Obs (ORYSA (rice); [1]): 55%
- ORYSA Visual Injury (%) ‘Clearfield’ Obs (ORYSA (rice); [1]): 50%
- ORYSA Visual Injury (%) ‘Cocodrie’ Obs (ORYSA (rice); [1]): 30%
- ORYSA Visual Injury (%) ‘Lemont’ Obs (ORYSA (rice); [1]): 25%
- ORYSA Visual Injury (%) ‘M202’ Obs (ORYSA (rice); [1]): 55%
- ORYSA Visual Injury (%) ‘Wells’ Obs (ORYSA (rice); [1]): 10%

Compound: CCCCOCCOC(=O)c1nc(-c2ccc(Cl)c(OC)c2F)cc(N)c1Cl [Compound 1 Et butoxy Ester]
- ORYSA Visual Injury (%) ‘Cheniere’ Obs (ORYSA (rice); [2]): 50%
- ORYSA Visual Injury (%) ‘Clearfield’ Obs (ORYSA (rice); [2]): 40%
- ORYSA Visual Injury (%) ‘Cocodrie’ Obs (ORYSA (rice); [2]): 50%
- ORYSA Visual Injury (%) ‘Lemont’ Obs (ORYSA (rice); [2]): 50%
- ORYSA Visual Injury (%) ‘M202’ Obs (ORYSA (rice); [2]): 30%
- ORYSA Visual Injury (%) ‘Wells’ Obs (ORYSA (rice); [2]): 15%

Compound: CC(C)OC(=O)COc1ccc(Cl)c2cccnc12 [Cloquintocet i-Propyl Ester]
- Visual Injury (%) ECHCO Obs (ECHCO; 280 g ae/ha): 0%
- Visual Injury (%) ‘Lemont’ ORYSA Obs (ORYSA (rice); alone, 280 g ae/ha): 0%
- Visual Injury (%) CYPDI Obs (CYPDI; 280 g ae/ha): 0%
- Visual Injury (%) SEBEX Obs (SEBEX; 280 g ae/ha): 0%

Compound: C=CCN(CC=C)C(=O)C(Cl)Cl [Dichlormid]
- ORYSA Visual Injury (%) ‘Cheniere’ Obs (ORYSA (rice); safener 140 g ai/ha alone): 0%
- ORYSA Visual Injury (%) ‘Cocodrie’ Obs (ORYSA (rice); safener 140 g ai/ha alone): 0%
- ORYSA Visual Injury (%) ‘Lemont’ Obs (ORYSA (rice); safener 140 g ai/ha alone): 0%

Compound: CCOC(=O)COc1ccc(Cl)c2cccnc12 [Cloquintocet Ethyl Ester]
- Visual Injury (%) ECHCO Obs (ECHCO; 280 g ae/ha): 0%
- Visual Injury (%) ‘Lemont’ ORYSA Obs (ORYSA (rice); alone, 280 g ae/ha): 0%
- Visual Injury (%) CYPDI Obs (CYPDI; 280 g ae/ha): 0%
- Visual Injury (%) SEBEX Obs (SEBEX; 280 g ae/ha): 0%

Compound: COC(=O)c1nc(-c2ccc(Cl)c(OC)c2F)cc(N)c1Cl [Compound 1 Methyl Ester]
- Visual Injury (%) ECHCO Obs (ECHCO; 17.5 g ae/ha): 99%
- Visual Injury (%) ECHCO Obs (ECHCO; 35 g ae/ha): 99%
- Visual Injury (%) ECHCO Obs (ECHCO; 35 g ai/ha): 95% and 100%
- Visual Injury (%) ECHCO Obs (ECHCO; 70 g ae/ha): 100%
- Visual Injury (%) ECHCO Obs (ECHCO; 70 g ai/ha): 99% and 100%
- ‘M202’ ORYSA Visual Injury (%) Obs (ORYSA (rice); No safener, 17.5 g ai/ha): 15.0%
- ORYSA Visual Injury (%) ‘Cheniere’ Obs (ORYSA (rice); [3]): 20%
- ORYSA Visual Injury (%) ‘Cocodrie’ Obs (ORYSA (rice); [3]): 13%
- ORYSA Visual Injury (%) ‘M202’ Obs (ORYSA (rice); [3]): 45%
- ‘M202’ ORYSA Visual Injury (%) Obs (ORYSA (rice); No safener, 35 g ai/ha): 35.0%
- Visual Injury (%) ‘Lemont’ ORYSA Obs (ORYSA (rice); alone, 17.5 g ae/ha): 15%
- ORYSA Visual Injury (%) ‘Cheniere’ Obs (ORYSA (rice); [1]): 85%
- ORYSA Visual Injury (%) ‘Clearfield’ Obs (ORYSA (rice); [1]): 45%
- ORYSA Visual Injury (%) ‘Cocodrie’ Obs (ORYSA (rice); [1]): 55%
- ORYSA Visual Injury (%) ‘Lemont’ Obs (ORYSA (rice); [1]): 40%
- ORYSA Visual Injury (%) ‘M202’ Obs (ORYSA (rice); [1]): 25%
- ORYSA Visual Injury (%) ‘Wells’ Obs (ORYSA (rice); [1]): 10%
- Visual Injury (%) ‘Lemont’ ORYSA Obs (ORYSA (rice); alone, 35 g ae/ha): 35%
- Visual Injury (%) ‘Lemont’ ORYSA Obs (ORYSA (rice); alone, 70 g ae/ha): 45%
- Visual Injury (%) ‘Lemont’ ORYSA Obs (ORYSA (rice); alone, 70 g ai/ha): 50% and 25%
- Visual Injury (%) CYPDI Obs (CYPDI; 17.5 g ae/ha): 100%
- Visual Injury (%) CYPDI Obs (CYPDI; 35 g ae/ha): 100%
- Visual Injury (%) CYPDI Obs (CYPDI; 35 g ai/ha): 100%
- Visual Injury (%) CYPDI Obs (CYPDI; 70 g ae/ha): 100%
- Visual Injury (%) CYPDI Obs (CYPDI; 70 g ai/ha): 100%
- Visual Injury (%) SEBEX Obs (SEBEX; 17.5 g ae/ha): 100%
- Visual Injury (%) SEBEX Obs (SEBEX; 35 g ae/ha): 100%
- Visual Injury (%) SEBEX Obs (SEBEX; 35 g ai/ha): 100%
- Visual Injury (%) SEBEX Obs (SEBEX; 70 g ae/ha): 100%
- Visual Injury (%) SEBEX Obs (SEBEX; 70 g ai/ha): 100%

Compound: N#C/C(=N\OCC1OCCO1)c1ccccc1 [Oxabetrinil, (αZ)-α-[(1,3-dioxolan-2-yl)methoxyimino]-benzeneacetonitrile]
- Visual Injury (%) ECHCO Obs (ECHCO; 35 g ai/ha): 0%
- Visual Injury (%) ECHCO Obs (ECHCO; 70 g ai/ha): 0%
- Visual Injury (%) ECHCO Obs (ECHCO; 140 g ai/ha): 0%
- Visual Injury (%) ECHCO Obs (ECHCO; 280 g ai/ha): 0%
- Visual Injury (%) ‘Lemont’ ORYSA Obs (ORYSA (rice); alone, 35 g ai/ha): 0%
- Visual Injury (%) ‘Lemont’ ORYSA Obs (ORYSA (rice); alone, 70 g ai/ha): 15%
- Visual Injury (%) ‘Lemont’ ORYSA Obs (ORYSA (rice); alone, 140 g ai/ha): 0%
- Visual Injury (%) ‘Lemont’ ORYSA Obs (ORYSA (rice); alone, 280 g ai/ha): 10%
- Visual Injury (%) CYPDI Obs (CYPDI; 35 g ai/ha): 0%
- Visual Injury (%) CYPDI Obs (CYPDI; 70 g ai/ha): 0%
- Visual Injury (%) CYPDI Obs (CYPDI; 140 g ai/ha): 0%
- Visual Injury (%) CYPDI Obs (CYPDI; 280 g ai/ha): 0%
- Visual Injury (%) SEBEX Obs (SEBEX; 35 g ai/ha): 0%
- Visual Injury (%) SEBEX Obs (SEBEX; 70 g ai/ha): 0%
- Visual Injury (%) SEBEX Obs (SEBEX; 140 g ai/ha): 0%
- Visual Injury (%) SEBEX Obs (SEBEX; 280 g ai/ha): 0%

Compound: CC1(C)OC(c2ccco2)CN1C(=O)C(Cl)Cl (stereo not shown) [Furilazole, 3-(dichloroacetyl)-5-(2-furanyl)-2,2-dimethyl-oxazolidine]
- ‘M202’ ORYSA Visual Injury (%) Obs (ORYSA (rice); Safener Alone, 560 g ai/ha): 3.3%
- ORYSA Visual Injury (%) ‘Lemont’ Obs (ORYSA (rice); safener 70 g ai/ha alone): 0%

Compound: Cc1ccc(NC(=O)NC(C)(C)c2ccccc2)cc1 [Daimuron, N-(4-methylphenyl)-N′-(1-methyl-1-phenylethyl)-urea]
- Visual Injury (%) ECHCO Obs (ECHCO; 35 g ai/ha): 5%
- Visual Injury (%) ECHCO Obs (ECHCO; 70 g ai/ha): 0%
- Visual Injury (%) ECHCO Obs (ECHCO; 140 g ai/ha): 0%
- Visual Injury (%) ECHCO Obs (ECHCO; 280 g ai/ha): 10%
- ‘M202’ ORYSA Visual Injury (%) Obs (ORYSA (rice); Safener Alone, 560 g ai/ha): 3.3%
- Visual Injury (%) ‘Lemont’ ORYSA Obs (ORYSA (rice); alone, 35 g ai/ha): 0%
- Visual Injury (%) ‘Lemont’ ORYSA Obs (ORYSA (rice); alone, 70 g ai/ha): 0%
- Visual Injury (%) ‘Lemont’ ORYSA Obs (ORYSA (rice); alone, 140 g ai/ha): 0%
- Visual Injury (%) ‘Lemont’ ORYSA Obs (ORYSA (rice); alone, 280 g ai/ha): 0%
- Visual Injury (%) CYPDI Obs (CYPDI; 35 g ai/ha): 0%
- Visual Injury (%) CYPDI Obs (CYPDI; 70 g ai/ha): 0%
- Visual Injury (%) CYPDI Obs (CYPDI; 140 g ai/ha): 0%
- Visual Injury (%) CYPDI Obs (CYPDI; 280 g ai/ha): 0%
- Visual Injury (%) SEBEX Obs (SEBEX; 35 g ai/ha): 0%
- Visual Injury (%) SEBEX Obs (SEBEX; 70 g ai/ha): 0%
- Visual Injury (%) SEBEX Obs (SEBEX; 140 g ai/ha): 0%
- Visual Injury (%) SEBEX Obs (SEBEX; 280 g ai/ha): 0%

Compound: C#CCOC(=O)c1nc(-c2ccc(Cl)c(OC)c2F)cc(N)c1Cl [Compound 1 Propargyl Ester]
- ORYSA Visual Injury (%) ‘Cheniere’ Obs (ORYSA (rice); [4]): 55%
- ORYSA Visual Injury (%) ‘Clearfield’ Obs (ORYSA (rice); [4]): 50%
- ORYSA Visual Injury (%) ‘Cocodrie’ Obs (ORYSA (rice); [4]): 35%
- ORYSA Visual Injury (%) ‘Lemont’ Obs (ORYSA (rice); [4]): 30%
- ORYSA Visual Injury (%) ‘M202’ Obs (ORYSA (rice); [4]): 55%
- ORYSA Visual Injury (%) ‘Wells’ Obs (ORYSA (rice); [4]): 10%
